Assay [1] addresses T1, 5-LO (Homo sapiens, UniProt P09917).
T1 construct: incubating a test compound with heparinised human blood; endogenous in cells; host or cells: heparinised whole human blood (leukocytes, by own knowledge)
T1 sequence (P09917 1-674): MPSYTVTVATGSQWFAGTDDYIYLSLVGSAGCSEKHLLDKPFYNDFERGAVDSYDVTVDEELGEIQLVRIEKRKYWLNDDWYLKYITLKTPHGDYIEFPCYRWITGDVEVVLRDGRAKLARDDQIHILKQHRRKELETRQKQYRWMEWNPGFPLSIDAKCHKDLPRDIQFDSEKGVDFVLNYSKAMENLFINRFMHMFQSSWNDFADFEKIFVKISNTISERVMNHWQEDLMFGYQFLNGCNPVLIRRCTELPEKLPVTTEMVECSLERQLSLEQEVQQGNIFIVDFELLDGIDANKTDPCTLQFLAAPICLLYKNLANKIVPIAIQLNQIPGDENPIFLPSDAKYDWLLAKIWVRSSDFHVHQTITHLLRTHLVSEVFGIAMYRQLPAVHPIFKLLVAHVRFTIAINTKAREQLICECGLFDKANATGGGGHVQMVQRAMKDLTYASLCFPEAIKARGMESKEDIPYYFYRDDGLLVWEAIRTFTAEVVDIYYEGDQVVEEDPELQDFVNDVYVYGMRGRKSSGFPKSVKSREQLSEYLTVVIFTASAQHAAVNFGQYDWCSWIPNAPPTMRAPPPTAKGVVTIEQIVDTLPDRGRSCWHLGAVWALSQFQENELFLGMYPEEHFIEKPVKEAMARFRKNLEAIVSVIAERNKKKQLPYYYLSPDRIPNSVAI
In words: heparinised human blood challenged with calcium ionophore A23187, LTB4 radioimmunoassay (test b). Conditions: A23187 challenge. In kind it is cell-based. As to the method: (§1) b) An in vitro assay system involving incubating a test compound with heparinised human blood, prior to challenge with the calcium ionophore A23187 and then indirectly measuring the inhibitory effects on 5-LO by assaying the amount of LTB4 using the specific radioimmunoassay described by Carey and Forder (F. Carey and R. A. Forder, Brit. J. Pharmacol. 1985, 84, 34P) which involves the use of a protein-LTB4 conjugate produced using the procedure of Young et alia (Prostaglandins, 1983, 26(4),605-613). The effects of a test compound on the enzyme cyclooxygenase (which is involved in the alternative metabolic pathway for arachidonic acid and gives rise to prostaglandins, thromboxanes and related metabolites) may be measured at the same time using the specific radioimmunoassay for thromboxane B2 (TxB2) described by Carey and Forder (see above). This test provides an indication of the effects of a test compound against 5-LO and also cyclooxygenase in the presence of blood cells and proteins. It permits the selectivity of the inhibitory effect on 5-LO or cyclooxygenase to be assessed.

The next assay has as its target T2, cyclooxygenase (Homo sapiens, UniProt P23219).
T2 construct: incubating a test compound with heparinised human blood; endogenous in cells; host or cells: heparinised whole human blood (platelets, by own knowledge)
In words: heparinised human blood challenged with calcium ionophore A23187, TxB2 radioimmunoassay (test b). In kind it is cell-based. Particulars: A23187 challenge. The protocol: as §1

For assay [2], the target named is T3, 5-LO (Rattus norvegicus, UniProt P12527).
T3 construct: blood collection, heparinisation, challenge with A23187 and radioimmunoassay of LTB4 and TxB2; endogenous in cells
T3 sequence (P12527 1-673): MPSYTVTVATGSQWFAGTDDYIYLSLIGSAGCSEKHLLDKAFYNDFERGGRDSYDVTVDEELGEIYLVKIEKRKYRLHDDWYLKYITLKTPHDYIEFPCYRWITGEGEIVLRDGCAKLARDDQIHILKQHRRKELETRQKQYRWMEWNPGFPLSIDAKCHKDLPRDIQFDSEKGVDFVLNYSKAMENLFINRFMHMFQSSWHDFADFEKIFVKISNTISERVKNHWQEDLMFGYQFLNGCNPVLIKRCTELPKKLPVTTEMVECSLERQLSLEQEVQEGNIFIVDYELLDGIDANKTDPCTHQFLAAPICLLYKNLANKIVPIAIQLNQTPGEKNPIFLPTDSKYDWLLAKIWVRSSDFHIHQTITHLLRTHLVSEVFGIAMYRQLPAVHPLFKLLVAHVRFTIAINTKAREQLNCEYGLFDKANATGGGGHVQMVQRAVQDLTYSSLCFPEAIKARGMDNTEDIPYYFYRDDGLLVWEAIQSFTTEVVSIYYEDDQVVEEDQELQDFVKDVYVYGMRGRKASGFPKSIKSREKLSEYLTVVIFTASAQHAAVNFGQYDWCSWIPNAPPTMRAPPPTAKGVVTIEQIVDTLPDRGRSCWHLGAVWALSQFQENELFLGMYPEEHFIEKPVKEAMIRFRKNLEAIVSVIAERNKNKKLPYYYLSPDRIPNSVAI
In words: ex vivo assay: administration of compound, blood collection, A23187 challenge, LTB4 radioimmunoassay (test c). In kind it is in vivo. Particulars: oral administration.

Molecules are shown by their SMILES. A value given as a limit tells only on which side of the number the result lay.

T2 sequence (P23219 24-599): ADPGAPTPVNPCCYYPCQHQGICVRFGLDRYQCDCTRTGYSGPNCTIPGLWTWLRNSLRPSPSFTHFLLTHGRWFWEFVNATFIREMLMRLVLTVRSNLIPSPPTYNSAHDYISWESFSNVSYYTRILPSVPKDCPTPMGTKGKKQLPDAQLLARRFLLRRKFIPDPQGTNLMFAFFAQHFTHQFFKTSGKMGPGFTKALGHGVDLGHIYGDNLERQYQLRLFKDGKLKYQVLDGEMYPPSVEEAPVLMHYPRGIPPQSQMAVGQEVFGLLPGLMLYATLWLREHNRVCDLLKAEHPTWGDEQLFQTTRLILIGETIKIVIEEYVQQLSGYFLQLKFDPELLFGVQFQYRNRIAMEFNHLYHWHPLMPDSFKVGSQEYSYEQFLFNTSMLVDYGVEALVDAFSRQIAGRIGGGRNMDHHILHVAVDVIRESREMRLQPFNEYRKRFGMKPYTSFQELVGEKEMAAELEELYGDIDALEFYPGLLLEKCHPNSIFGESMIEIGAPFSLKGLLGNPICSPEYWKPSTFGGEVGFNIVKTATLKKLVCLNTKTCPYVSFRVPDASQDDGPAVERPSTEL

For the compound `CCC(OC)(c1cccc(OCC#Cc2ccccn2)c1)c1nccs1` (stereo not drawn) [2-[1-[3-(3-(2-pyridyl)prop-2-yn-1-yloxy)phenyl]-1-methoxypropyl]thiazole], the IC50 on 5-LO [1] is 700 nM; on cyclooxygenase it was greater than 40000 nM. The same compound returned an ED50 on 5-LO [2] of 50 mg/kg.

Values taken from patent US5283245A, “Heterocyclic thiazole derivatives and pharmaceutical compositions comprising said derivatives” (Imperial Chemical Industries PLC, priority 1989, dated 1994).
